From ChEMBL document CHEMBL3045446, “In vitro antimicrobial and antimycobacterial activity of some chalcones and their derivatives” (2013)
Values after ≈ are worked out from the molar mass of the structure shown.

Tests used:
Format in all cases: functional
Shigella flexneri [1] = assay: Antimicrobial activity against Shigella flexneri MTCC1457 assessed as diameter of growth inhibition zone after 24 hr
Aspergillus niger [2] = assay: Antimicrobial activity against Aspergillus niger MTCC 282 assessed as diameter of growth inhibition zone after 48 hr
Staphylococcus aureus [3] = assay: Antimicrobial activity against Staphylococcus aureus MTCC 96 assessed as growth inhibition after 24 hr by agar streak dilution method; details: MTCC 96, 24 h
Proteus vulgaris [4] = assay: Antimicrobial activity against Proteus vulgaris MTCC 1771 assessed as diameter of growth inhibition zone after 24 hr
Staphylococcus aureus [5] = assay: Antimicrobial activity against Staphylococcus aureus MTCC 96 assessed as diameter of growth inhibition zone after 24 hr
Escherichia coli [6] = assay: Antimicrobial activity against Escherichia coli MTCC 739 assessed as diameter of growth inhibition zone after 24 hr
Aspergillus clavatus [7] = assay: Antimicrobial activity against Aspergillus clavatus MTCC 1323 assessed as growth inhibition after 48 hr by agar streak dilution method; details: MTCC 1323, 48 h
Shigella flexneri [8] = assay: Antimicrobial activity against Shigella flexneri MTCC1457 assessed as growth inhibition after 24 hr by agar streak dilution method; details: MTCC1457, 24 h
Bacillus cereus [9] = assay: Antimicrobial activity against Bacillus cereus MTCC 430 assessed as growth inhibition after 24 hr by agar streak dilution method; details: MTCC 430, 24 h
Candida albicans [10] = assay: Antimicrobial activity against Candida albicans MTCC 183 assessed as diameter of growth inhibition zone after 48 hr
Aspergillus fumigatus [11] = assay: Antimicrobial activity against Aspergillus fumigatus MTCC 343 assessed as diameter of growth inhibition zone after 48 hr
Salmonella typhi [12] = assay: Antimicrobial activity against Salmonella enterica subsp. enterica serovar Typhi MTCC 733 assessed as diameter of growth inhibition zone after 24 hr
Candida albicans [13] = assay: Antimicrobial activity against Candida albicans MTCC 183 assessed as growth inhibition after 48 hr by agar streak dilution method; details: MTCC 183, 48 h
Klebsiella pneumoniae [14] = assay: Antimicrobial activity against Klebsiella pneumoniae MTCC 109 assessed as diameter of growth inhibition zone after 24 hr
[15] = tested on: Mycobacterium tuberculosis; assay: Antituberculosis activity against Mycobacterium tuberculosis H37Rv assessed as growth inhibition after 12 to 28 days by L-J MIC method; details: for MIC: Mycobacterium tuberculosis, H37Rv
Pseudomonas aeruginosa [16] = assay: Antimicrobial activity against Pseudomonas aeruginosa MTCC 741 assessed as growth inhibition after 24 hr by agar streak dilution method; details: MTCC 741, 24 h
Aspergillus clavatus [17] = assay: Antimicrobial activity against Aspergillus clavatus MTCC 1323 assessed as diameter of growth inhibition zone after 48 hr
Salmonella typhi [18] = assay: Antimicrobial activity against Salmonella enterica subsp. enterica serovar Typhi MTCC 733 assessed as growth inhibition after 24 hr by agar streak dilution method; details: MTCC 733, 24 h
Pseudomonas aeruginosa [19] = assay: Antimicrobial activity against Pseudomonas aeruginosa MTCC 741 assessed as diameter of growth inhibition zone after 24 hr
Bacillus cereus [20] = assay: Antimicrobial activity against Bacillus cereus MTCC 430 assessed as diameter of growth inhibition zone after 24 hr
Proteus vulgaris [21] = assay: Antimicrobial activity against Proteus vulgaris MTCC 1771 assessed as growth inhibition after 24 hr by agar streak dilution method; details: MTCC 1771, 24 h
Klebsiella pneumoniae [22] = assay: Antimicrobial activity against Klebsiella pneumoniae MTCC 109 assessed as growth inhibition after 24 hr by agar streak dilution method; details: MTCC 109, 24 h
Aspergillus fumigatus [23] = assay: Antimicrobial activity against Aspergillus fumigatus MTCC 343 assessed as growth inhibition after 48 hr by agar streak dilution method; details: MTCC 343, 48 h
Escherichia coli [24] = assay: Antimicrobial activity against Escherichia coli MTCC 739 assessed as growth inhibition after 24 hr by agar streak dilution method; details: MTCC 739, 24 h
Aspergillus niger [25] = assay: Antimicrobial activity against Aspergillus niger MTCC 282 assessed as growth inhibition after 48 hr by agar streak dilution method; details: MTCC 282, 48 h

Structure (SMILES) | diameter of the inhibition zone (DIZ) (Shigella flexneri [1]) [mm] | diameter of the inhibition zone (DIZ) (Aspergillus niger [2]) [mm] | MIC (Staphylococcus aureus [3]) [µg/mL] | diameter of the inhibition zone (DIZ) (Proteus vulgaris [4]) [mm] | diameter of the inhibition zone (DIZ) (Staphylococcus aureus [5]) [mm] | diameter of the inhibition zone (DIZ) (Escherichia coli [6]) [mm] | MIC (Aspergillus clavatus [7]) [µg/mL] | MIC (Shigella flexneri [8]) [µg/mL] | MIC (Bacillus cereus [9]) [µg/mL] | diameter of the inhibition zone (DIZ) (Candida albicans [10]) [mm] | diameter of the inhibition zone (DIZ) (Aspergillus fumigatus [11]) [mm] | diameter of the inhibition zone (DIZ) (Salmonella typhi [12]) [mm] | MIC (Candida albicans [13]) [µg/mL] | diameter of the inhibition zone (DIZ) (Klebsiella pneumoniae [14]) [mm] | growth inhibition (GI) [15] [%] | MIC [15] [µg/mL] | MIC (Pseudomonas aeruginosa [16]) [µg/mL] | diameter of the inhibition zone (DIZ) (Aspergillus clavatus [17]) [mm] | MIC (Salmonella typhi [18]) [µg/mL] | diameter of the inhibition zone (DIZ) (Pseudomonas aeruginosa [19]) [mm] | also measured
O=C(/C=C/c1ccc(Cl)cc1)c1ccc(Nc2cc(=O)oc3ccccc23)cc1 | 18 | 12 | 50 (≈ 124 µM) | 17 | 18 | 12 | 100 (≈ 249 µM) | 50 (≈ 124 µM) | 100 (≈ 249 µM) | 15 | 14 | 15 | 100 (≈ 249 µM) | 20 | 95 | 1000 (≈ 2490 µM) | 100 (≈ 249 µM) | 14 | 100 (≈ 249 µM) | 10 | diameter of the inhibition zone (DIZ) (Bacillus cereus [20]): 14 mm; MIC (Proteus vulgaris [21]): 100 µg/mL (≈ 249 µM); MIC (Klebsiella pneumoniae [22]): 50 µg/mL (≈ 124 µM); MIC (Aspergillus fumigatus [23]): 100 µg/mL (≈ 249 µM); MIC (Escherichia coli [24]): 100 µg/mL (≈ 249 µM); MIC (Aspergillus niger [25]): 100 µg/mL (≈ 249 µM)
COc1ccc(C2CC(c3ccc(Nc4cc(=O)oc5ccccc45)cc3)=NN2C(C)=O)cc1 (stereo unspecified) | 16 | 21 | 100 (≈ 221 µM) | 20 | 16 | 19 | 25 (≈ 55.1 µM) | 100 (≈ 221 µM) | 100 (≈ 221 µM) | 19 | 18 | 17 | 50 (≈ 110 µM) | 17 | 99 | 100 (≈ 221 µM) | 50 (≈ 110 µM) | 20 | 100 (≈ 221 µM) | 18 | diameter of the inhibition zone (DIZ) (Bacillus cereus [20]): 15 mm; MIC (Proteus vulgaris [21]): 50 µg/mL (≈ 110 µM); MIC (Klebsiella pneumoniae [22]): 100 µg/mL (≈ 221 µM); MIC (Aspergillus fumigatus [23]): 50 µg/mL (≈ 110 µM); MIC (Escherichia coli [24]): 50 µg/mL (≈ 110 µM); MIC (Aspergillus niger [25]): 25 µg/mL (≈ 55.1 µM)
Nc1nc(-c2ccc(Nc3cc(=O)oc4ccccc34)cc2)cc(-c2ccc(Cl)cc2Cl)n1 | 21 | 20 | 12.5 (≈ 26.3 µM) | 25 | 24 | 19 | 50 (≈ 105 µM) | 25 (≈ 52.6 µM) | 12.5 (≈ 26.3 µM) | 21 | 22 | 20 | 25 (≈ 52.6 µM) | 21 | 98 | 200 (≈ 421 µM) | 25 (≈ 52.6 µM) | 19 | 25 (≈ 52.6 µM) | 22 | diameter of the inhibition zone (DIZ) (Bacillus cereus [20]): 22 mm; MIC (Proteus vulgaris [21]): 6.25 µg/mL (≈ 13.1 µM); MIC (Klebsiella pneumoniae [22]): 25 µg/mL (≈ 52.6 µM); MIC (Aspergillus fumigatus [23]): 12.5 µg/mL (≈ 26.3 µM); MIC (Escherichia coli [24]): 50 µg/mL (≈ 105 µM); MIC (Aspergillus niger [25]): 25 µg/mL (≈ 52.6 µM)
O=C(/C=C/c1ccc(F)cc1)c1ccc(Nc2cc(=O)oc3ccccc23)cc1 | 14 | 17 | 50 (≈ 130 µM) | 18 | 18 | 18 | 100 (≈ 259 µM) | 100 (≈ 259 µM) | 25 (≈ 64.9 µM) | 13 | 19 | 17 | 100 (≈ 259 µM) | 17 | 97 | 250 (≈ 649 µM) | 100 (≈ 259 µM) | 15 | 100 (≈ 259 µM) | 16 | diameter of the inhibition zone (DIZ) (Bacillus cereus [20]): 19 mm; MIC (Proteus vulgaris [21]): 50 µg/mL (≈ 130 µM); MIC (Klebsiella pneumoniae [22]): 100 µg/mL (≈ 259 µM); MIC (Aspergillus fumigatus [23]): 50 µg/mL (≈ 130 µM); MIC (Escherichia coli [24]): 50 µg/mL (≈ 130 µM); MIC (Aspergillus niger [25]): 50 µg/mL (≈ 130 µM)
COc1ccc(-c2cc(-c3ccc(Nc4cc(=O)oc5ccccc45)cc3)nc(N)n2)cc1OC | 24 | 27 | 6.25 (≈ 13.4 µM) | 21 | 27 | 25 | 12.5 (≈ 26.8 µM) | 12.5 (≈ 26.8 µM) | 12.5 (≈ 26.8 µM) | 26 | 25 | 22 | 6.25 (≈ 13.4 µM) | 23 | 98 | 50 (≈ 107 µM) | 12.5 (≈ 26.8 µM) | 23 | 12.5 (≈ 26.8 µM) | 23 | diameter of the inhibition zone (DIZ) (Bacillus cereus [20]): 20 mm; MIC (Proteus vulgaris [21]): 25 µg/mL (≈ 53.6 µM); MIC (Klebsiella pneumoniae [22]): 12.5 µg/mL (≈ 26.8 µM); MIC (Aspergillus fumigatus [23]): 12.5 µg/mL (≈ 26.8 µM); MIC (Escherichia coli [24]): 6.25 µg/mL (≈ 13.4 µM); MIC (Aspergillus niger [25]): 6.25 µg/mL (≈ 13.4 µM)
Nc1nc(-c2ccc(Nc3cc(=O)oc4ccccc34)cc2)cc(-c2ccc([N+](=O)[O-])cc2)n1 | 16 | 17 | 100 (≈ 222 µM) | 14 | 15 | 17 | 25 (≈ 55.4 µM) | 100 (≈ 222 µM) | 100 (≈ 222 µM) | 19 | 16 | 21 | 50 (≈ 111 µM) | 18 | 96 | 500 (≈ 1110 µM) | 100 (≈ 222 µM) | 20 | 25 (≈ 55.4 µM) | 16 | diameter of the inhibition zone (DIZ) (Bacillus cereus [20]): 16 mm; MIC (Proteus vulgaris [21]): 100 µg/mL (≈ 222 µM); MIC (Klebsiella pneumoniae [22]): 50 µg/mL (≈ 111 µM); MIC (Aspergillus fumigatus [23]): 100 µg/mL (≈ 222 µM); MIC (Escherichia coli [24]): 100 µg/mL (≈ 222 µM); MIC (Aspergillus niger [25]): 50 µg/mL (≈ 111 µM)
